Reference: PMC5656322, “BAK1 is involved in AtRALF1-induced inhibition of root cell expansion” (PLoS Genetics, 2017)
Where no end group is shown, it is not given here.

How the values were obtained:
[1] = system: AtPRP3, AtHRGP2, CPD and DWF4 genes; conditions: cited from earlier work
Excerpt: AtRALF1-overexpressing plants are less sensitive to exogenous brassinosteroids (BRs). […] AtRALF1 also induces two cytochrome P450 monooxygenase genes related to the BR biosynthetic pathway: Constitutive Photomorphism and Dwarfism (CPD) and DWARF4 (DWF4). We exposed the bak1 mutants to the same concentration of AtRALF1 and evaluated the capacity to induce the AtPRP3, AtHRGP2, CPD and DWF4 genes. None of the AtRALF1-inducible genes were ...

[2] = system: cytosolic Ca^2+ in Arabidopsis seedlings; conditions: from extra- and intracellular stores; ref [1],[11]; cited from earlier work
[3] = system: extracellular domain of BAK1 (BAK1-ECD); assay: Yeast two-hybrid with BAK1-ECD; type: binding, Arabidopsis thaliana; conditions: yeast AH109, medium lacking Leu, Trp, His
Excerpt: Fig 6 AtRALF1 interacts physically with BAK1 protein. (A) The active AtRALF1 peptide interacts with the extracellular domain (ECD) of BAK1 (BAK1-ECD) in yeast. The AtRALF1 protein fused to the GAL4 DNA-binding domain (AtRALF1-pGBKT7) was used as bait to test its interaction with the extracellular domain of the proteins fused to the GAL4 activation domain (pGADT7): BAK1 (BAK1-ECD), BAK7 (BAK7-ECD), BRI1 (BRI1-ECD) and FLS2 (FLS2-ECD). (B) Blueprint showing the truncated proteins from the extracellular domain of BAK1 tested in the two-hybrid assay. The extracellular domain of BAK1 comprises leucine zippers (LZ), 5 leucine rich-regions (LRRs) and a proline-rich region (pro-rich). (C) AtRALF1-pGBKT7 was used as bait to test its interaction with truncated proteins fused to the GAL4 activation domain (pGADT7). […] HA-BAK1-ECD was detected with an anti-HA antibody. AtRALF1 was detected with an anti-RALF antibody. […] BAK1-GFP was detected with an anti-GFP antibody. […]
The coding regions of the mature peptides AtRALF1 and AtRALF34 were amplified from Arabidopsis genomic DNA and fused to the GAL4 DNA-binding domain and the MYC epitope tag using the NdeI/BamHI sites in the pGBKT7 (Clontech) vector. […] The proteins fused to the HA and MYC epitope tags were detected by protein blotting. […]

[4] = system: cytosolic Ca^2+ in Arabidopsis seedlings; assay: Ca^2+ mobilization assay (apoaequorin luminescence); type: in vivo, Arabidopsis thaliana
Protocol: The cytoplasmic Ca^2+ assay was performed in Arabidopsis seedlings as described previously. Changes in Ca^2+ levels were measured using an Arabidopsis line homozygous for the single insertion of a transgene encoding a cytoplasmically expressed apoaequorin protein driven by the constitutive promoter 35S [53], here denoted Wt-aeq. Wt-aeq plants were crossed with bak1-3 mutants, and T3 generation plants overexpressing apoaequorin and containing a T-DNA insertion in the BAK1 gene, named bak1-3-aeq, were selected and evaluated using semi-quantitative RT-PCR with specific primers (S1 Table). Arabidopsis seedlings were grown in plates for 4 days. A single seedling was transferred into each well of a 96-well white microplate (Thermo Labsystems) containing 200 μl of medium supplemented with […] coelenterazine cp (Biotium) and incubated in the dark at 24 °C for 16 h. Each well containing a single seedling received recombinant AtRALF1 or acridinium-labeled AtRALF1 at a final concentration of 5, 10 or 100 nM as indicated. The resulting luminescence emission was monitored using a microplate reader (Biotec ELx 800) and 20 time-points for approximately 160 s. The experiments were repeated at least three times using independent biological replicates. The data shown are from one representative experiment.

In the case of “AtRALF1: root-specific RALF isoform in Arabidopsis; recombinant peptide hormone produced in E. coli (ATTKYISYQSLKRNSVPCSRRGASYYNCQNGAQANPYSRGCSKIARCRS; ends and bridges not checked; cysteine pairing not given here)”, the “induction of AtPRP3 and AtHRGP2 genes” value ([1]; Arabidopsis seedling roots, ref [9]) is given as “induces, in a dose-dependent manner”, the “induction of CPD and DWF4 genes” value ([1]; ref [9]) is given as “induces” and the AtEXPA5 expression ([1]; roots of treated seedlings, ref [16]–[18]) is given as “repressed in the roots of AtRALF1-treated seedlings”. For the same substance, the “cytoplasmic Ca^2+” value [2] was “rapid increase in cytoplasmic Ca^2+”, the “interaction with BAK1-ECD (Y2H complementation)” value [3] was “able to complement only the BAK1-ECD construct” and the “increase in cytoplasmic Ca^2+” value ([4]; acriAtRALF1 vs unlabeled AtRALF1, apoaequorin seedlings (S17A Fig)) was “induced an increase in cytoplasmic Ca^2+”. The cytosolic calcium increase ([4]; bak1-3-aeq plants, 10 and 100 nM) was “cytosolic calcium increase similar to plants expressing the apoaequorin gene in a wild-type background”.
